US6734168B2, “Endothelial monocyte activating polypeptide II: a mediator which activates host response” (The Trustees of Columbia University in the City of New York, priority 1993, dated 2004)

Tested on: human PMNs
Assay: Release of peroxidase generating activity (myeloperoxidase) from PMNs
Type: cell-based
Details: 60 min at 37° C.
Experimental: Release of peroxidase generating activity from PMNs (myeloperoxidase) was determined by oxidation of the peroxidase substrate 3,3′,5,5′-tetramethylbenzidine (TMB; Sigma), monitored at 620 nm, as described (35). In brief, PMNs (3×10^6 cells/ml; 0.05 ml) were incubated for 60 min at 37° C. with RPMI 1640 containing fetal calf serum (1%) alone or in the presence of phorbol ester (phorbol 12-myristate 13-acetate; Sigma) or EMAP II-derived peptides. TMP and hydrogen peroxide were added for 1 min at room temperature, and the reaction was stopped with sodium azide and acetic acid. Peroxidase activity, assessed by oxidation of TMB, was determined spectrophotometrically and is reported as percent total peroxidase activity (100% is the activity observed with that number of PMNs following 60 min exposure to phorbol ester, 10 μM). A standard curve was generated by assaying peroxidase activity from different numbers of PMNs treated with phorbol ester (10 μM) under these conditions, and peroxidase activity of PMN/EMAP II peptide incubation mixtures was determined by comparison with the linear portion of the standard curve (35).
Release of Peroxidase Generating Activity from PMNs (myeloperoxidase)—Release was determined by a previously described assay (36) which monitors oxidation of the substrate 3,3′,5,5′-tetramethylbenzidine (TMB; Sigma). […]

Release of PMN myeloperoxidase activity (peroxidase generation assay): released PMN myeloperoxidase activity
Sequence: ASRLDLRIGRIVTAKY [residues #6-20 from EMAP II, Cys to Arg substitution at position #15, and a C-terminal Tyr]
